Assay results reported in patent US12533341B2, “Small molecule inhibitors of voltage-gated sodium channel 1.7 and methods of using same” (Duke University, priority 2019, dated 2026).
Entries after “also recorded” stand apart in the source; their conditions may differ.

Legend:
[1] = tested on: paclitaxel-induced mechanical allodynia; assay: Paclitaxel-induced neuropathic pain model (von Frey); assay type: in vivo, mouse; settings: intrathecal 10 nmol and 30 nmol, mice
Protocol: Intraperitoneal injection of paclitaxel (PTX, 2 mg/kg for multiple injections at day 0, 2, 4, and 6) was given to generate chemotherapy-associated neuropathic pain. Neuropathic pain behavior was tested 3 weeks after PTX injection using a von Frey test. Briefly, animals were habituated to the testing environment daily for at least 2 days before the baseline testing. Animals were confined in boxes placed on an elevated metal mesh floor and the hind paws were stimulated with a series of von Frey hairs with logarithmically increasing stiffness (0.02-2.56 g, Stoelting), presented perpendicularly to the central plantar surface. The 50% paw withdrawal threshold was determined by an up-down method.

human Nav1.7 = human Nav1.7 (Homo sapiens, UniProt Q15858); assay: Whole-cell patch-clamp of sodium currents in Nav1.7-expressing HEK293 cells; assay type: cell-based; settings: 10 μM, screen of compounds 1-9 (FIG. 3)
Chain of human Nav1.7 (Q15858 whole entry): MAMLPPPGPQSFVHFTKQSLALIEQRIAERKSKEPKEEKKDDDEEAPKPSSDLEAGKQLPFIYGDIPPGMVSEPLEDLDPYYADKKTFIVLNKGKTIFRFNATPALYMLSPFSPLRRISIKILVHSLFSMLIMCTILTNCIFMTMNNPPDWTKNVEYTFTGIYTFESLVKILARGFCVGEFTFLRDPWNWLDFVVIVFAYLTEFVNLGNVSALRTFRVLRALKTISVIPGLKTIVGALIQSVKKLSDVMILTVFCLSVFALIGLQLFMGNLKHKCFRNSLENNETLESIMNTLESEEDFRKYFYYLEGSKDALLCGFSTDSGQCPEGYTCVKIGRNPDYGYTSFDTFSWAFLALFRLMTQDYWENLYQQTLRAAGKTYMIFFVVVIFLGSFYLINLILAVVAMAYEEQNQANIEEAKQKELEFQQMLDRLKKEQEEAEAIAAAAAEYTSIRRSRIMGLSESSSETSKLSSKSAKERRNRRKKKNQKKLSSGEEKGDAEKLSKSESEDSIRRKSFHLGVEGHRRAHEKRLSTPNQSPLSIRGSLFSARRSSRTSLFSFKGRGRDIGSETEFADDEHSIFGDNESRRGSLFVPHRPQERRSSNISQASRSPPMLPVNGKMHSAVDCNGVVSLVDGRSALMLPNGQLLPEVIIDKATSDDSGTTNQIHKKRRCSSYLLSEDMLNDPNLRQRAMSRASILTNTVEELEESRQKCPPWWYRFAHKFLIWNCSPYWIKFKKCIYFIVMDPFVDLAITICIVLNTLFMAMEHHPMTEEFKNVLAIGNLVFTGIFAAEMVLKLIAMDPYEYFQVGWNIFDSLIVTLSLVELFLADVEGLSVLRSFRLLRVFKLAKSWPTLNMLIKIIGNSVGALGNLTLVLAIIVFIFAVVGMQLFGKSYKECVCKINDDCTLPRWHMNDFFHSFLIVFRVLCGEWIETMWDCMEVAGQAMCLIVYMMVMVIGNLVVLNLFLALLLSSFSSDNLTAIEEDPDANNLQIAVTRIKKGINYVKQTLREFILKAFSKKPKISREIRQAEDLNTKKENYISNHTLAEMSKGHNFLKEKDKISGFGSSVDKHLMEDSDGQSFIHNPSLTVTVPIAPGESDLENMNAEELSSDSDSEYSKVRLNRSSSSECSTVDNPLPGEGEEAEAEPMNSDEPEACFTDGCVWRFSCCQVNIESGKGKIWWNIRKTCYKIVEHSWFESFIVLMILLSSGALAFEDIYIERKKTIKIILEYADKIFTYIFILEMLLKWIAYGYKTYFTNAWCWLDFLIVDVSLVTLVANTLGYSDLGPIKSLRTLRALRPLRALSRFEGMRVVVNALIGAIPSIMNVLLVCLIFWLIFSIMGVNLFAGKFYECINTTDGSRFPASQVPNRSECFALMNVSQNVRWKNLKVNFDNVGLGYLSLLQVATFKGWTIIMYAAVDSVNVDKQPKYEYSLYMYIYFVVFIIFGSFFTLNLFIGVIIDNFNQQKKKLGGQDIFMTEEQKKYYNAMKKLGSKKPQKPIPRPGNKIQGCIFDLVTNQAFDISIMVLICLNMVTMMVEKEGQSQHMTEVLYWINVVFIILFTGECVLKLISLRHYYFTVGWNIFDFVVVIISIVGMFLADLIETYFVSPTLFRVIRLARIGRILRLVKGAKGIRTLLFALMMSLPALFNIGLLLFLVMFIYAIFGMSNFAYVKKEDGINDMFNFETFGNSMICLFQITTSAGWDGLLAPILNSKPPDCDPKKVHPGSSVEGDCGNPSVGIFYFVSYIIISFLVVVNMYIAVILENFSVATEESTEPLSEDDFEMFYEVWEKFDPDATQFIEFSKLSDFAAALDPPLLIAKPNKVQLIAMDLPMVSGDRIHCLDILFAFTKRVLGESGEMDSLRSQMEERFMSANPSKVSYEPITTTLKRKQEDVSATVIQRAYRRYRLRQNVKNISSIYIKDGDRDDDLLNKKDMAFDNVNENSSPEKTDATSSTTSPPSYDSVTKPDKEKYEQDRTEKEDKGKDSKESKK
Protocol: HEK-hNav1.7 stable cell line was purchased from SB Drug Discovery (Glasgow, United Kingdom). Human embryonic kidney 293 (HEK293) cells were obtained from the ATCC and maintained at the Duke cell culture facility. Cells were cultured in high-glucose (4.5 g/L) DMEM containing 10% (v/v) FBS (Gibco) and streptomycin/penicillin. For Nav1.7-expressing HEK293 cells, an additional antibiotic, blasticidin, was included. hNav1.5 transfection was performed by Lipofectamine 2000 at 70% confluence using 2 μg cDNA. The transfected cells were cultured in the same growth medium for 48 h before biochemical or electrophysiological studies.
Whole-cell patch-clamp recordings were conducted at room temperature. Patch pipettes pulled from borosilicate capillaries (World Precision Instruments, Inc., Sarasota, FL) were used to record transient Na currents with an Axopatch-200B amplifier with a Digidata 1440A (Axon Instruments, Sunnyvale CA). The resistance was set to 3-4 MΩ when filled with pipette solution. The pipette solution contained (in mmol/L): CsCl 130, NaCl 9, MgCl2 1, EGTA 10, HEPES 10, adjusted to pH 7.3 with CsOH. The external solution for recording transient Na^+ currents contained (in mmol/L): NaCl 131, TEACl 10, CsCl 10, CaCl2) 1, MgCl2 2, CdCl2 0.3, 4-aminopyridine 3, HEPES 10, glucose 10, adjusted to pH 7.4 with NaOH. The recording chamber (300 μL) was continuously superfused at 3-4 mL/min. Series resistance was compensated (>80%) and leak subtraction was performed. Data were low-pass-filtered at 2 kHz and sampled at 10 kHz. pClamp10 (Axon Instruments) software was used during experiments and analysis. In voltage-clamp experiments, transient Na+ currents were evoked by a test pulse to 0 mV from the holding potential (−70 mV).
The effects of the 9 selected compounds on Nav1.7 channel activities were tested using patch-clamp recordings on human Nav1.7 expressing HEK293 cells (FIG. 3, FIG. 4). In each cell, sodium currents were recorded for 13 min, and candidate inhibitors (10 μM) were incubated for 2 min after 2 min baseline recording (FIG. 3). Compound was applied at the beginning of the second minute for two minutes (denoted as a horizontal line above the X-axis). Sodium currents were recorded at equal intervals (every 20 seconds, 40 recordings per compound per cell). Data was analyzed with a two-way repeated measures ANOVA, followed by a post-hoc test of the last timepoint Bonferroni-corrected for 9 pairwise comparisons (each compound was compared with control). […] Sample size n=3 to 7 cells per group.
For FIG. 4C, sample size was n=5 to 7 cells per group. Compound was applied at the beginning of the second minute for two minutes (denoted as a horizontal line above the X-axis). Sodium currents were recorded every 20 seconds.

acute and chronic itch = assay: Itch models (acute, dry skin, allergic contact dermatitis); assay type: in vivo, mouse; settings: intrathecally at a dose of 30 mg/kg, dry skin and ACD itch models
Protocol: Mice are habituated to the testing environment daily for at least two days before analysis. Mice are shaved at the back of the neck the day before injection. Mice are left in small plastic chambers (14×18×12 cm) on an elevated metal mesh floor and allowed 30 min for habituation before examination. To elicit acute itch, pruritic agent 48/80 or chloroquine are injected intradermally in the nape of the neck and the number of scratched are counted every 5 min for 30 min after the injection. A scratch is counted when a mouse lifts its hindpaw to scratch the shaved region and returns the paw to the floor or to the mouth for the licking (Liu, et al. 2012; J Cin. Invest. 122(6):2195-2207).
To induce chronic itch, the neck skin is painted with acetone and diethyl ether (1:1) followed by water twice a day for 4 days, and spontaneous itch is examined by counting the number of scratches for 60 minutes on day 5. (Liu, et al. 2012, supra).
Chronic itch is induced by applying the hapten 1-fluoro-2,4-dinitrobenzene (DNFB) onto the back skin. (Liu, Ji, et al. 2016; Pain. 157(4):806-817; Zhao, et al. 2013; J Clin. Invest. 123(11):4769-4780). DNFB is dissolved in a mixture of acetone:olive oil (4:1) for sensitization and challenge. One day before sensitization, the surface of the abdomen and the nape of the neck are shaved. Mice are sensitized with 0.5% DNFB solution (50 μL) by topical application to a ˜2 cm^2 area of abdomen skin. Five days later, mice are challenged with 0.2% DNFB solution (30 μL) by painting the shave neck area, then every other day for one week. Spontaneous scratching behaviors are videoed for 1 hour, at 24 hours after each challenge. The behavioral tests of itch are performed blindly.
Animals in the itch models are dosed with N-substituted indoles 10, 11, and 12, which are administered intrathecally at a dose of 30 mg/kg.

[2] = tested on: neuropathic pain (CCI, SNI); assay: Neuropathic pain models (CCI, SNI); assay type: in vivo, mouse; settings: intrathecally at a dose of 30 mg/kg; CCI and SNI models
Protocol: Neuropathic pain is produced by chronic constriction injury (CCI) of the sciatic nerve. Mice are anesthetized with isoflurane, and three ligatures are 7-0 prolene placed around the nerve proximal to the trifurcation (1 mm between ligatures). The ligatures are loosely tied until a short flick of the ipsilateral hind limb is observed (Chen, Ji, et al. 2015; J Clin. Invest. 125(8):3226-3240).
SNI model. Neuropathic pain is produced by spared nerve injury (SNI). SNI surgery is conducted with a 5.0 silk tight ligation of the tibial and common peroneal nerves followed by transection and removal of a 3-5 mm nerve portion.
Animals in the neuropathic pain models are dosed with N-substituted indoles according to the present disclosure [N-(methylsulfonyl)-3-(3-oxo-1-(3-phenoxyphenyl)-3-((2-(pyrrolidin-1-yl)ethyl)amino)propyl)-1H-indole-1-carboxamide (10); (Z)-N-(5-((3-(3-oxo-1-(3-phenoxyphenyl)-3-((2-(pyrrolidin-1-yl)ethyl)amino)propyl)-1H-indol-1-yl)sulfonyl)-1,3,4-thiadiazol-2-yl)acetimidic acid (11); and 3-(3-phenoxyphenyl)-N-(2-(pyrrolidin-1-yl)ethyl)-3-(1-(thiazol-2-ylsulfonyl)-1H-indol-3-yl)propanamide (12)]. The compounds are synthesized according to the route outlined in Scheme 1 and are administered intrathecally at a dose of 30 mg/kg.

| difference in relative current from the control group at the last measurement (human Nav1.7) | Compound | anti-allodynic effect in the paclitaxel model [1] | reduction of scratching in itch models (acute and chronic itch) | reduction of pain in neuropathic pain models [2] |
| --- | --- | --- | --- | --- |
| – | Nc1[nH]ncc1-c1cc(Cl)ccc1Oc1cc(F)c(S(=O)(=O)Nc2cscn2)cc1Cl [PF-05089771, reference compound] | failed to produce any anti-allodynic effect; also recorded: did not produce anti-allodynia effects | – | – |
| 0.35 | COc1ccc(Cn2cc(C(CC(=O)NCc3ccccc3)c3cccc(OCc4ccccc4)c3)c3ccccc32)cc1 (stereo not shown) [Compound 7] | – | – | – |
| 0.29 | Cc1ccc(Cn2cc(C(CC(=O)NCc3ccncc3)c3cccc(Oc4ccc(Cl)cc4)c3)c3ccccc32)cc1 (stereo not shown) [Compound 5] | – | – | – |
| – | CC(=O)Nc1nnc(S(=O)(=O)n2cc(C(CC(=O)NCCN3CCCC3)c3cccc(Oc4ccccc4)c3)c3ccccc32)s1 (stereo not shown) [Compound 11, (Z)-N-(5-((3-(3-oxo-1-(3-phenoxyphenyl)-3-((2-(pyrrolidin-1-yl)ethyl)amino)propyl)-1H-indol-1-yl)sulfonyl)-1,3,4-thiadiazol-2-yl)acetimidic acid] | – | Reduction of scratching is observed | Reduction of pain is observed |
| – | CS(=O)(=O)NC(=O)n1cc(C(CC(=O)NCCN2CCCC2)c2cccc(Oc3ccccc3)c2)c2ccccc21 (stereo not shown) [Compound 10, N-(methylsulfonyl)-3-(3-oxo-1-(3-phenoxyphenyl)-3-((2-(pyrrolidin-1-yl)ethyl)amino)propyl)-1H-indole-1-carboxamide] | – | Reduction of scratching is observed | Reduction of pain is observed |
| 0.36 | COc1ccc(Cn2cc(C(CC(=O)NCc3ccco3)c3cccc(Oc4ccccc4)c3)c3ccccc32)cc1 (stereo not shown) [Compound 8] | – | – | – |
| – | O=C(CC(c1cccc(Oc2ccccc2)c1)c1cn(S(=O)(=O)c2nccs2)c2ccccc12)NCCN1CCCC1 (stereo not shown) [Compound 12, 3-(3-phenoxyphenyl)-N-(2-(pyrrolidin-1-yl)ethyl)-3-(1-(thiazol-2-ylsulfonyl)-1H-indol-3-yl)propanamide] | – | Reduction of scratching is observed | Reduction of pain is observed |
